{
  "source": "PubChem BioAssay AID2060495",
  "about": "(Molecular Pharmacology Branch, DTP, NCI, 2025);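 note: spheroids exposed to agents for one week before reading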;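 for viability, T/C: 100% = DMSO vehicle control viability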",
  "system": "521955-158-R2-J5-PDC complex spheroid viability",
  "experiment": "Anticancer human tumor 521955-158-R2-J5-PDC patient-derived pancreatic carcinoma cell line growth inhibition [GQUAD]",
  "conditions": "for IC50: curve of first compound; for viability, T/C: stronger effect = lower value",
  "procedure,_shortened": "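Viability of tumor cells grown as complex spheroids with endothelial and stromal cells, exposed to drug combinations. Top concentration at or near clinical Cmax (else 10 microM), diluted in half-log increments.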",
  "key": {"[1]": {"conditions": "second compound 0.0316 µM, first compound 0.0316 µM"}, "[2]": {"conditions": "second compound 0.0316 µM, first compound 0.1 µM"}, "[3]": {"conditions": "second compound 0.0316 µM, first compound 0.316 µM"}, "[4]": {"conditions": "second compound 0.0316 µM, first compound 1 µM"}, "[5]": {"conditions": "second compound 0.0316 µM, first compound 3.16 µM"}, "[6]": {"conditions": "second compound 0.0316 µM, first compound 10 µM"}, "[7]": {"conditions": "second compound 0.1 µM, first compound 0.0316 µM"}, "[8]": {"conditions": "second compound 0.1 µM, first compound 0.1 µM"}, "[9]": {"conditions": "second compound 0.1 µM, first compound 0.316 µM"}, "[10]": {"conditions": "second compound 0.1 µM, first compound 1 µM"}, "[11]": {"conditions": "second compound 0.1 µM, first compound 3.16 µM"}, "[12]": {"conditions": "second compound 0.1 µM, first compound 10 µM"}, "[13]": {"conditions": "second compound 0.316 µM, first compound 0.0316 µM"}, "[14]": {"conditions": "second compound 0.316 µM, first compound 0.1 µM"}, "[15]": {"conditions": "second compound 0.316 µM, first compound 0.316 µM"}, "[16]": {"conditions": "second compound 0.316 µM, first compound 1 µM"}, "[17]": {"conditions": "second compound 0.316 µM, first compound 3.16 µM"}, "[18]": {"conditions": "second compound 0.316 µM, first compound 10 µM"}, "[19]": {"conditions": "second compound 1 µM, first compound 0.0316 µM"}, "[20]": {"conditions": "second compound 1 µM, first compound 0.1 µM"}, "[21]": {"conditions": "second compound 1 µM, first compound 0.316 µM"}, "[22]": {"conditions": "second compound 1 µM, first compound 1 µM"}, "[23]": {"conditions": "second compound 1 µM, first compound 3.16 µM"}, "[24]": {"conditions": "second compound 1 µM, first compound 10 µM"}, "[25]": {"conditions": "second compound 3.16 µM, first compound 0.0316 µM"}, "[26]": {"conditions": "second compound 3.16 µM, first compound 0.1 µM"}, "[27]": {"conditions": "second compound 3.16 µM, first compound 0.316 µM"}, "[28]": {"conditions": "second compound 3.16 µM, first compound 1 µM"}, "[29]": {"conditions": "second compound 3.16 µM, first compound 3.16 µM"}, "[30]": {"conditions": "second compound 3.16 µM, first compound 10 µM"}, "[31]": {"conditions": "second compound 10 µM, first compound 0.0316 µM"}, "[32]": {"conditions": "second compound 10 µM, first compound 0.1 µM"}, "[33]": {"conditions": "second compound 10 µM, first compound 0.316 µM"}, "[34]": {"conditions": "second compound 10 µM, first compound 1 µM"}, "[35]": {"conditions": "second compound 10 µM, first compound 3.16 µM"}, "[36]": {"conditions": "second compound 10 µM, first compound 10 µM"}},
  "data": [
    {"smiles": "CC(C)(O)C1CCC(Nc2ccc3ncc(-c4cccc(C(F)(F)F)c4)n3n2)CC1", "note": "(centres undefined) + Cc1cnc(CNC(=O)c2c(=O)c3ccc(N4CCCN(C)CC4)nc3n3c2sc2ccccc23)cn1", "values": [
      {"measurement": "IC50", "setting": "second compound 0.0316 µM", "value": 1680, "unit": "nM"},
      {"measurement": "IC50", "setting": "second compound 0.1 µM", "value": 1200, "unit": "nM"},
      {"measurement": "IC50", "setting": "second compound 0.316 µM", "value": "< 31.6", "unit": "nM"},
      {"measurement": "IC50", "setting": "second compound 1 µM", "value": "< 31.6", "unit": "nM"},
      {"measurement": "IC50", "setting": "second compound 3.16 µM", "value": "< 31.6", "unit": "nM"},
      {"measurement": "IC50", "setting": "second compound 10 µM", "value": "< 31.6", "unit": "nM"},
      {"measurement": "viability, T/C", "setting": "[1]", "value": 79, "unit": "%"},
      {"measurement": "viability, T/C", "setting": "[2]", "value": 64.6, "unit": "%"},
      {"measurement": "viability, T/C", "setting": "[3]", "value": 90.4, "unit": "%"},
      {"measurement": "viability, T/C", "setting": "[4]", "value": 106, "unit": "%"},
      {"measurement": "viability, T/C", "setting": "[5]", "value": 6.53, "unit": "%"},
      {"measurement": "viability, T/C", "setting": "[6]", "value": 7.58, "unit": "%"},
      {"measurement": "viability, T/C", "setting": "[7]", "value": 57.4, "unit": "%"},
      {"measurement": "viability, T/C", "setting": "[8]", "value": 57.8, "unit": "%"},
      {"measurement": "viability, T/C", "setting": "[9]", "value": 56.5, "unit": "%"},
      {"measurement": "viability, T/C", "setting": "[10]", "value": 58.6, "unit": "%"},
      {"measurement": "viability, T/C", "setting": "[11]", "value": 9.19, "unit": "%"},
      {"measurement": "viability, T/C", "setting": "[12]", "value": 8.3, "unit": "%"},
      {"measurement": "viability, T/C", "setting": "[13]", "value": 36.9, "unit": "%"},
      {"measurement": "viability, T/C", "setting": "[14]", "value": 30.2, "unit": "%"},
      {"measurement": "viability, T/C", "setting": "[15]", "value": 34, "unit": "%"},
      {"measurement": "viability, T/C", "setting": "[16]", "value": 31.8, "unit": "%"},
      {"measurement": "viability, T/C", "setting": "[17]", "value": 7.87, "unit": "%"},
      {"measurement": "viability, T/C", "setting": "[18]", "value": 8.39, "unit": "%"},
      {"measurement": "viability, T/C", "setting": "[19]", "value": 18.4, "unit": "%"},
      {"measurement": "viability, T/C", "setting": "[20]", "value": 21.1, "unit": "%"},
      {"measurement": "viability, T/C", "setting": "[21]", "value": 16.7, "unit": "%"},
      {"measurement": "viability, T/C", "setting": "[22]", "value": 22.3, "unit": "%"},
      {"measurement": "viability, T/C", "setting": "[23]", "value": 0.25, "unit": "%"},
      {"measurement": "viability, T/C", "setting": "[24]", "value": 1.56, "unit": "%"},
      {"measurement": "viability, T/C", "setting": "[25]", "value": 18.8, "unit": "%"},
      {"measurement": "viability, T/C", "setting": "[26]", "value": 16.6, "unit": "%"},
      {"measurement": "viability, T/C", "setting": "[27]", "value": 17.7, "unit": "%"},
      {"measurement": "viability, T/C", "setting": "[28]", "value": 15, "unit": "%"},
      {"measurement": "viability, T/C", "setting": "[29]", "value": 0.12, "unit": "%"},
      {"measurement": "viability, T/C", "setting": "[30]", "value": 0.12, "unit": "%"},
      {"measurement": "viability, T/C", "setting": "[31]", "value": 9.8, "unit": "%"},
      {"measurement": "viability, T/C", "setting": "[32]", "value": 14, "unit": "%"},
      {"measurement": "viability, T/C", "setting": "[33]", "value": 10.7, "unit": "%"},
      {"measurement": "viability, T/C", "setting": "[34]", "value": 8.62, "unit": "%"},
      {"measurement": "viability, T/C", "setting": "[35]", "value": 0.21, "unit": "%"},
      {"measurement": "viability, T/C", "setting": "[36]", "value": 0.23, "unit": "%"}
    ]},
    {"smiles": "Cc1cccc(N(C)C(=O)C2C(O)CCN2c2nc(C)cc(C(F)(F)F)c2C#N)c1", "note": "(centres undefined) + Cc1cnc(CNC(=O)c2c(=O)c3ccc(N4CCCN(C)CC4)nc3n3c2sc2ccccc23)cn1", "values": [
      {"measurement": "IC50", "setting": "second compound 0.0316 µM", "value": "> 10000", "unit": "nM"},
      {"measurement": "IC50", "setting": "second compound 0.1 µM", "value": "> 10000", "unit": "nM"},
      {"measurement": "IC50", "setting": "second compound 0.316 µM", "value": "< 31.6", "unit": "nM"},
      {"measurement": "IC50", "setting": "second compound 1 µM", "value": "< 31.6", "unit": "nM"},
      {"measurement": "IC50", "setting": "second compound 3.16 µM", "value": "< 31.6", "unit": "nM"},
      {"measurement": "IC50", "setting": "second compound 10 µM", "value": "< 31.6", "unit": "nM"},
      {"measurement": "viability, T/C", "setting": "[1]", "value": 96.8, "unit": "%"},
      {"measurement": "viability, T/C", "setting": "[2]", "value": 75, "unit": "%"},
      {"measurement": "viability, T/C", "setting": "[3]", "value": 92.8, "unit": "%"},
      {"measurement": "viability, T/C", "setting": "[4]", "value": 78.9, "unit": "%"},
      {"measurement": "viability, T/C", "setting": "[5]", "value": 101, "unit": "%"},
      {"measurement": "viability, T/C", "setting": "[6]", "value": 89.6, "unit": "%"},
      {"measurement": "viability, T/C", "setting": "[7]", "value": 54.9, "unit": "%"},
      {"measurement": "viability, T/C", "setting": "[8]", "value": 66.2, "unit": "%"},
      {"measurement": "viability, T/C", "setting": "[9]", "value": 71.5, "unit": "%"},
      {"measurement": "viability, T/C", "setting": "[10]", "value": 62.2, "unit": "%"},
      {"measurement": "viability, T/C", "setting": "[11]", "value": 88.7, "unit": "%"},
      {"measurement": "viability, T/C", "setting": "[12]", "value": 74.6, "unit": "%"},
      {"measurement": "viability, T/C", "setting": "[13]", "value": 43.7, "unit": "%"},
      {"measurement": "viability, T/C", "setting": "[14]", "value": 49.9, "unit": "%"},
      {"measurement": "viability, T/C", "setting": "[15]", "value": 40.9, "unit": "%"},
      {"measurement": "viability, T/C", "setting": "[16]", "value": 43.7, "unit": "%"},
      {"measurement": "viability, T/C", "setting": "[17]", "value": 46.5, "unit": "%"},
      {"measurement": "viability, T/C", "setting": "[18]", "value": 38.2, "unit": "%"},
      {"measurement": "viability, T/C", "setting": "[19]", "value": 23.6, "unit": "%"},
      {"measurement": "viability, T/C", "setting": "[20]", "value": 22.5, "unit": "%"},
      {"measurement": "viability, T/C", "setting": "[21]", "value": 22.7, "unit": "%"},
      {"measurement": "viability, T/C", "setting": "[22]", "value": 24.4, "unit": "%"},
      {"measurement": "viability, T/C", "setting": "[23]", "value": 20.9, "unit": "%"},
      {"measurement": "viability, T/C", "setting": "[24]", "value": 22.9, "unit": "%"},
      {"measurement": "viability, T/C", "setting": "[25]", "value": 19.1, "unit": "%"},
      {"measurement": "viability, T/C", "setting": "[26]", "value": 22.3, "unit": "%"},
      {"measurement": "viability, T/C", "setting": "[27]", "value": 19.8, "unit": "%"},
      {"measurement": "viability, T/C", "setting": "[28]", "value": 22.8, "unit": "%"},
      {"measurement": "viability, T/C", "setting": "[29]", "value": 20.6, "unit": "%"},
      {"measurement": "viability, T/C", "setting": "[30]", "value": 20.1, "unit": "%"},
      {"measurement": "viability, T/C", "setting": "[31]", "value": 20.7, "unit": "%"},
      {"measurement": "viability, T/C", "setting": "[32]", "value": 19.2, "unit": "%"},
      {"measurement": "viability, T/C", "setting": "[33]", "value": 21.5, "unit": "%"},
      {"measurement": "viability, T/C", "setting": "[34]", "value": 20.2, "unit": "%"},
      {"measurement": "viability, T/C", "setting": "[35]", "value": 24.7, "unit": "%"},
      {"measurement": "viability, T/C", "setting": "[36]", "value": 20.2, "unit": "%"}
    ]}
  ]
}
